The term EC50 denotes the midpoint of the concentration-response curve. A higher EC50 goes with a less potent agent. By Emax is commonly meant the size of the effect at its maximum, as opposed to the concentration needed. Broadly, the Cmax is the maximum level reached in the sampled fluid or tissue.

The source of these data is article PMC6887720 (Pharmacology Research & Perspectives, 2019).

Data set [1] has as its target EED (embryonic ectoderm development) (Homo sapiens, UniProt O75530). Briefly: Binding to EED.
The next data set concerns rat. In words: Intravenous pharmacokinetic study in rat: observed adverse signs. The class given is in vivo. Conditions: intravenous bolus 5 mg/kg.
For data set [2], the target named is T1, human MrgX2 (hMrgX2) (Homo sapiens, UniProt Q96LB1).
T1 sequence (Q96LB1 1-330): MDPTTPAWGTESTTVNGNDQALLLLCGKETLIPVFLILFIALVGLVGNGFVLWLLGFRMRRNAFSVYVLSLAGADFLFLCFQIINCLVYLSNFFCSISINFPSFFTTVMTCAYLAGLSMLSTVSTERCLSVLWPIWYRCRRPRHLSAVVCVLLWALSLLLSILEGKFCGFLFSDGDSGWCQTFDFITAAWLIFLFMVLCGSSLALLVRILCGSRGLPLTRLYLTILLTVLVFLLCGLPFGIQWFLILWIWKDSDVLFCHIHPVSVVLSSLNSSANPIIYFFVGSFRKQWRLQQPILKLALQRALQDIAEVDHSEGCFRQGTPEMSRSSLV
In words: Ca2+ mobilization. Format: cell-based.

For data set [3], the system named is rat MrgX2 (rMrgX2, Mrgprb3). In words: Ca2+ mobilization. Format: cell-based. Conditions: for calcium response (in words): no Gα16.
Data set [4] concerns the target T2, truncated beagle MrgX2 (beMrgX2) (Canis lupus familiaris, UniProt A0A4Y5P885).
T2 sequence (A0A4Y5P885 88-417): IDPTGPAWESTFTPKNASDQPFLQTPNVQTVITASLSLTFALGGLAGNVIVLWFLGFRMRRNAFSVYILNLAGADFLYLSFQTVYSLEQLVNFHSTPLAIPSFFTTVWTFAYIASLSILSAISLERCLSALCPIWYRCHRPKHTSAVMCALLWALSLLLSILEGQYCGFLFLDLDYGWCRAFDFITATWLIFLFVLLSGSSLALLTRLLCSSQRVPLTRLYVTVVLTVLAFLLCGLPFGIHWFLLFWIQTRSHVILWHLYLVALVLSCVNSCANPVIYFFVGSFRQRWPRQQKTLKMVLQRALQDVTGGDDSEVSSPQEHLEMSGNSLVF
Briefly: Ca2+ mobilization. The class given is cell-based, beagle dog. To be noted: for calcium response (in words): truncated beMrgX2.

In another data set the target is T3, minipig MrgX2 (mpMrgX2) (Sus scrofa, UniProt A0A4Y5P9C0).
T3 sequence (A0A4Y5P9C0 38-367): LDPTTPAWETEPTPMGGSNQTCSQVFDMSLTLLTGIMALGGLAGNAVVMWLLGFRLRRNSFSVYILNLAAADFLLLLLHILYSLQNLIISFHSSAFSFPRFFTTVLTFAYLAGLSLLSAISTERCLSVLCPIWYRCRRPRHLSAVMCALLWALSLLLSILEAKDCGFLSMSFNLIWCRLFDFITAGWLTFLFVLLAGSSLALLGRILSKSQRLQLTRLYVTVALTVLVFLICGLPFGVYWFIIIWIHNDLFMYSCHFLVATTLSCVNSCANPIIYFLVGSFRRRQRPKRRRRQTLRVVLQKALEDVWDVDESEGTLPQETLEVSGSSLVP
Briefly: Ca2+ mobilization. Conditions: for calcium response (in words): truncated mpMrgX2. The class given is cell-based. A general note: Calcium flux is commonly read through the fluorescence of an indicator in the cells.

A further data set concerns pig MrgX2 (pMrgX2). Briefly: Ca2+ mobilization. Format: cell-based. To be noted: data not shown.
Data set [5] concerns U2OS cells (untransfected). In words: Ca2+ mobilization in U2OS cells lacking MrgX2. Format: cell-based, human.
The next data set has as its target human MrgX1 (hMrgX1) (Homo sapiens, UniProt Q96LB2). In words: Ca2+ mobilization. The class given is cell-based. To be noted: hMrgX1-Gα16 cells.
The next data set concerns HEK293-MSRII-Gα16 cells. Briefly: Ca2+ mobilization, untransfected HEK293-MSRII-Gα16 host cells. The class given is cell-based, human. To be noted: data not shown.
In data set [6] the target is T1, human MrgX2 (hMrgX2). In words: Ca2+ mobilization. The class given is cell-based. This is another data set of the same source.
The test system of the next data set is mpMrgX2. In words: Ca2+ mobilization, mpMrgX2 transfected into HEK293-MSRII-Gα16 cells. The class given is cell-based, minipig. To be noted: data not shown.
The subject of data set [7] is mouse MrgX2 versus human MrgX2. Conditions: cited from earlier work.
Data set [8] has as its target T4, mouse MrgX2 (mMrgX2, Mrgprb2) (Mus musculus, UniProt Q3KNA1).
T4 sequence (Q3KNA1 1-338): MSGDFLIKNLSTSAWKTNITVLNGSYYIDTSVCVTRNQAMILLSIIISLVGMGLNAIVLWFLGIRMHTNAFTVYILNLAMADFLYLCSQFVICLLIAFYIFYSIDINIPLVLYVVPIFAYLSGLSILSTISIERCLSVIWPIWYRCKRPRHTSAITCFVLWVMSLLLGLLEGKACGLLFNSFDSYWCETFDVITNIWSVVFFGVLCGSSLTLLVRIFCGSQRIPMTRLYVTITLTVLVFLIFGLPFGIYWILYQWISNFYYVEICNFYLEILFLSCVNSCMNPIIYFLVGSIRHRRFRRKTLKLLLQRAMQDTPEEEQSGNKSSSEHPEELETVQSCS
In words: Ca2+ mobilization. Format: cell-based. To be noted: no Gα16, up to 1mM.

For data set [9] the following is noted: cited from earlier work.
The conditions of data set [10]: dog, cited from earlier work.
For data set [11] the following is noted: minipig; cited from earlier work.
Setting [12] is: untransfected U2OS parent cells.

Read-outs that look alike come from different tables or passages of the source. Residues, ends and D or L forms follow the SMILES beside them. No end group written: not given here. Some results are limits rather than exact numbers.

Chain of human MrgX1 (hMrgX1) (Q96LB2 whole entry): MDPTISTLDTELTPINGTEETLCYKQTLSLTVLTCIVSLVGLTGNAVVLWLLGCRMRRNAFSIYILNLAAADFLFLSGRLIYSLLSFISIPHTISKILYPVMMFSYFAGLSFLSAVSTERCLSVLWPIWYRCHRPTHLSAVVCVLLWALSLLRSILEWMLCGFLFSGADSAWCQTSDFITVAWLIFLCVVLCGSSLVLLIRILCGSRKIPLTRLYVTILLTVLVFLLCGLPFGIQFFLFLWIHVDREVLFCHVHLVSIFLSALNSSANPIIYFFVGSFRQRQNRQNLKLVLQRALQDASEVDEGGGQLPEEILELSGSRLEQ
Chain of EED (embryonic ectoderm development) (O75530 whole entry, species assumed): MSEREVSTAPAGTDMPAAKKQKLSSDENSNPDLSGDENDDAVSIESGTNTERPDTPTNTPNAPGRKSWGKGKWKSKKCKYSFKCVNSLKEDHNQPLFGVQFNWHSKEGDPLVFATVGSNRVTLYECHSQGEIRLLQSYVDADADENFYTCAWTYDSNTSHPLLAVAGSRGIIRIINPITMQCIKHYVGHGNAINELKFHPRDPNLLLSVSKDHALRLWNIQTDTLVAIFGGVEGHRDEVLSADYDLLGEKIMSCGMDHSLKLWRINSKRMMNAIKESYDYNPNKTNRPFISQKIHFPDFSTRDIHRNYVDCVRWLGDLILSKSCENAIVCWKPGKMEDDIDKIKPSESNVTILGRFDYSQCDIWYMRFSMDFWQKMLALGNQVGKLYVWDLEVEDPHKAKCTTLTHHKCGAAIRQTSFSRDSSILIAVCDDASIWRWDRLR

Turning to `CCCC[C@@H]1NC(=O)[C@@](C)(NC(C)=O)CCCC=CCCC[C@@](C)(C(=O)N[C@@H](CC(N)=O)C(=O)N[C@@H](CCCNC(=N)N)C(=O)N[C@@H](CCC(N)=O)C(=O)N[C@@H](CCCCN)C(=O)N[C@H](C(=O)N[C@@H](CC(C)C)C(=O)N[C@@H](CCC(=O)O)C(=O)N[C@@H](CCCNC(=N)N)C(=O)N[C@H](C(=O)N[C@@]2(C)CCCC=CCCC[C@@](C)(C(=O)N[C@@H](CCC(=O)O)C(=O)N[C@@H](Cc3c[nH]c4ccccc34)C(=O)N[C@@H](CCCCN)C(=O)N[C@@H](CCC(N)=O)C(=O)N[C@@H](CCCNC(=N)N)C(N)=O)NC(=O)[C@H](CC(N)=O)NC(=O)[C@H](CC(C)C)NC(=O)[C@H]([C@@H](C)CC)NC2=O)[C@@H](C)O)[C@@H](C)CC)NC(=O)[C@H](CO)NC(=O)[C@H](Cc2ccccc2)NC1=O` (relative stereo) [Peptide 4], the “IC50 (binding to EED)” value in [1] is given as “high affinity”. Further, the “time to observation of symptoms” value in the data set on rat is no more than 3 min.

For `CCCC[C@@H]1NC(=O)[C@@](C)(NC(C)=O)CCCC=CCCC[C@@](C)(C(=O)N[C@@H](CC(N)=O)C(=O)N[C@@H](CCCNC(=N)N)C(=O)N[C@@H](CCC(N)=O)C(=O)N[C@@H](CCCCN)C(=O)N[C@H](C(=O)N[C@@H](CC(C)C)C(=O)N[C@@H](CCCNC(=N)N)C(=O)N[C@@H](CCCNC(=N)N)C(=O)N[C@H](C(=O)N[C@@]2(C)CCCC=CCCC[C@@](C)(C(=O)N[C@@H](CCC(=O)O)C(=O)N[C@@H](Cc3c[nH]c4ccccc34)C(=O)N[C@@H](CCCCN)C(=O)N[C@@H](CCC(N)=O)C(=O)N[C@@H](CCCNC(=N)N)C(N)=O)NC(=O)[C@H](CC(N)=O)NC(=O)[C@H](CC(C)C)NC(=O)[C@H]([C@@H](C)CC)NC2=O)[C@@H](C)O)[C@@H](C)CC)NC(=O)[C@H](CO)NC(=O)[C@H](Cc2ccccc2)NC1=O` (relative stereo) [GSK3212448], the “calcium response (in words)” value on human MrgX2 (hMrgX2) [2] (hMrgX2-Gα16-U2OS cells) is listed as “could activate hMrgX2‐Gα16‐U2OS”; in data set [4], “activated”; on minipig MrgX2 (mpMrgX2), “activated”; in the data set with pig MrgX2 (pMrgX2), “activated”; in [5] (U2OS cells transduced with Gα16 in the absence of hMrgX2) it was “but not Gα16‐U2OS cells”. Besides, the “fold more potent than reference agonist 48/80” value in data set [3] (rMrgX2 in U2OS cells) is recorded as 18 fold. Further, the “time to observation of symptoms” value in the data set on rat was no more than 2 min.

In the case of VGRPEWWMDYNKRYG [BAM8-22], the “calcium response (in words)” value at human MrgX1 (hMrgX1) is reported as “higher potency at hMrgX1‐Gα16 cells”.

Regarding `NCCc1c[nH]cn1` [histamine], the “calcium response (in words)” value in the data set with HEK293-MSRII-Gα16 cells is given as “did not cause calcium release”.

Molecule `C[C@@H](O)[C@@H]1NC(=O)[C@H](CCCCN)NC(=O)[C@H](Cc2c[nH]c3ccccc23)NC(=O)[C@H](Cc2ccccc2)NC(=O)[C@H](Cc2ccccc2)NC(=O)[C@H](CC(N)=O)NC(=O)[C@H](CCCCN)NC(=O)[C@@H](NC(=O)[C@@H]2CCCN2)CSSC[C@@H](C(=O)N[C@@H](CCCCN)C(=O)O)NC(=O)[C@H](CO)NC(=O)[C@H](CO)NC(=O)[C@H](Cc2ccccc2)NC1=O` [Cortistatin-14] (HELM PEPTIDE1{P.C.K.N.F.F.W.K.T.F.S.S.C.K}$PEPTIDE1,PEPTIDE1,2:R3-13:R3$$$V2.0) yielded a 50% effective concentration (EC50) on human MrgX2 (hMrgX2) [6] of 0.316 to 0.794 µM. Besides, the “calcium response (in words)” value is listed as “conferred a response” in [3], “No U2OS calcium response” in data set [5] (setting [12]), “conferred calcium responses” with mpMrgX2 and “failed to activate untransfected host cells” in the data set on HEK293-MSRII-Gα16 cells.

For CAS #: 130308-48-4 [Icatibant], the “calcium response (in words)” value in [5] (setting [12]) is on record as “No U2OS calcium response”. Also, in data set [7], the “fold less potent at mouse than human MrgX2” value was “twofold”.

`CN[C@H](CC(C)C)C(=O)N[C@H]1C(=O)N[C@@H](CC(N)=O)C(=O)N[C@H]2C(=O)N[C@H]3C(=O)N[C@H](C(=O)N[C@H](C(=O)O)c4cc(O)cc(O)c4-c4cc3ccc4O)[C@H](O)c3ccc(c(Cl)c3)Oc3cc2cc(c3O[C@@H]2O[C@H](CO)[C@@H](O)[C@H](O)[C@H]2O[C@H]2C[C@](C)(N)[C@H](O)[C@H](C)O2)Oc2ccc(cc2Cl)[C@H]1O` [vancomycin]: the EC50 is 39.8 µM on human MrgX2 (hMrgX2) [2], 25.1 µM in [4] and 158 µM at minipig MrgX2 (mpMrgX2). The results for the Emax (at human MrgX2 (hMrgX2) [2]; in data set [4] (U2OS); at minipig MrgX2 (mpMrgX2) (U2OS)) were 87 ± 8%, 97 ± 12% and 84 ± 13%, respectively. Moreover, the “calcium response (in words)” value in data set [8] is listed as “did not reach maximal effect at 1mM”; in data set [3], “did not reach maximal effect at 1mM”; in data set [4], “full or near‐full agonist”; on minipig MrgX2 (mpMrgX2), “full or near‐full agonist”; in [5] (setting [12]), “Negligible calcium responses”. Moreover, the protein binding in data set [9] (serum) is 50%. Besides, the peak concentration (Cmax) in data set [9] (vancomycin-treated patients) is greater than 30 µM; in data set [10], “≈ 100 µg/ml”; in data set [11], 34000 ng/mL. In addition, the “trough (lowest) free serum concentration” value in [9] (vancomycin-treated patients) was “≈ 5 ± 2 µmol/L”. The trough serum concentration in data set [9] (vancomycin-treated patients) is recorded as 13.6 ± 5.9 mg/L. Besides, the “free Cmax” value in [10] (assuming 50% protein binding) is reported as “≈ 35 µmol/L”; in data set [11], “≈ 23 µmol/L”. For the same molecule, the “histamine-like symptoms (in words)” value in [10] and in [11] was “no histamine‐like symptoms were observed” each time.
